The text below walks through data of ChEMBL document CHEMBL1201862, “PubChem BioAssay data set” (2004).

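96-well plates; 48 h exposure; 5 concentrations. Endpoints by linear interpolation between flanking doses. Not reached: highest tested concentration assigned. GI50 marks 50% less growth.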 Activity calls are given as the source filed them. No stated cut-off is given here; in the data, active = GI50 up to about 1.1 µM and inactive = higher.

Some test systems named below: NCI-H23; NCI-H522; UACC-62; NCI-H460; A549; SNB-75; CAKI-1; MOLT-4; 786-0; HCT-15; A498; CCRF-CEM; HT-29; NCI-H226; M14; RPMI-8226; IGROV-1; SK-MEL-28; NCI/ADR-RES.
Holding throughout (test): NCI anticancer screen, dose series, 48 h

`CCOC(=O)N[C@H]1CCc2cc(O)c(OC)c(OC)c2-c2ccc(SC)c(=O)cc21`: the GI50 with NCI-H23 was 0.0157 µM (active); with NCI-H522, 0.0177 µM (active); in the test on UACC-62, < 0.0144 µM (active); in the test on NCI-H460, 0.0172 µM (active); with A549, 0.0289 µM (active); in the test on SNB-75, < 0.01 µM (active). The GI50 was 0.0266 µM (active) in the test with CAKI-1; 0.03 µM (active) with MOLT-4; 0.0304 µM (active) in the test with 786-0; 0.0323 µM with HCT-15; 0.0208 µM (active) in the test on A498; < 0.0139 µM (active) in the test with CCRF-CEM. Besides, the GI50 was < 0.0135 µM (active) in the test with HT-29; 0.266 µM (active) with NCI-H226; < 0.01 µM (active) in the test on M14; < 0.0135 µM (active) with RPMI-8226; 0.0479 µM (active) in the test on IGROV-1; < 0.029 µM (active) with SK-MEL-28.
As for `COC(=O)C(C(=O)C(=O)Nc1nc2ccc(OC)cc2s1)c1cnc2ccccc2n1` (stereo not drawn), the GI50 in the test on NCI-H23, with NCI-H522, in the test on UACC-62, in the test with NCI-H460, with A549 and in the test on SNB-75 was > 100 µM (inactive) each time. The GI50 in the test on CAKI-1 was > 100 µM (inactive); in the test with MOLT-4 it was > 100 µM (inactive); in the test on 786-0, > 100 µM (inactive); in the test with HCT-15, above 100 µM; in the test on A498 it was > 100 µM (inactive); with HT-29, > 100 µM (inactive). In addition, the GI50 with NCI-H226, in the test with M14, in the test with RPMI-8226, in the test with IGROV-1 and in the test on SK-MEL-28 was > 100 µM (inactive) in each case.
Regarding `O=C(Nc1nc2ncn(CCNCCn3cnc4nc(NC(=O)c5ccccc5)[nH]c(=O)c43)c2c(=O)[nH]1)c1ccccc1`, the GI50 in the test on NCI-H23, in the test with NCI-H522, in the test on UACC-62, in the test on NCI-H460, in the test on A549 and in the test on SNB-75 was > 100 µM (inactive) in each case. The GI50 was > 100 µM (inactive) in the test on CAKI-1; > 100 µM (inactive) in the test on MOLT-4; > 100 µM (inactive) in the test with 786-0; above 100 µM in the test with HCT-15; > 100 µM (inactive) with A498; > 100 µM (inactive) with CCRF-CEM. For the same compound, the GI50 in the test with HT-29, with NCI-H226, in the test on M14, in the test on RPMI-8226, with IGROV-1 and in the test with SK-MEL-28 was > 100 µM (inactive) each time.
As to `FC(F)(F)c1ccccc1C1SCc2nc3ccccc3n21` (stereo not drawn), the GI50 in the test with NCI-H23 is 34 µM (inactive); in the test with NCI-H522 it was 18.3 µM (inactive); in the test on UACC-62, 22.5 µM (inactive); in the test with A549 it was 41.6 µM (inactive); with SNB-75, > 100 µM (inactive); with CAKI-1, 32.6 µM (inactive). Besides, the GI50 is 23.9 µM (inactive) with MOLT-4; > 100 µM (inactive) in the test on 786-0; 12.3 µM (inactive) with A498; 27.4 µM (inactive) with CCRF-CEM; 33.8 µM (inactive) in the test with HT-29; 39.4 µM (inactive) in the test with NCI-H226. Moreover, the GI50 is 23 µM (inactive) in the test with RPMI-8226, 60.1 µM (inactive) in the test on IGROV-1 and 77.8 µM (inactive) in the test with SK-MEL-28.
With `COc1cc2ccc(CC(=O)O)cc2cc1OC`, the GI50 in the test on NCI-H23, in the test with NCI-H522, in the test on UACC-62, in the test with A549, in the test with SNB-75 and in the test on CAKI-1 was > 100 µM (inactive) in each case. Moreover, the GI50 with MOLT-4 is > 100 µM (inactive); with 786-0 it was > 100 µM (inactive); in the test with HCT-15 it was above 100 µM; with A498, > 100 µM (inactive); in the test on CCRF-CEM, > 100 µM (inactive); with HT-29, > 100 µM (inactive). The GI50 with NCI-H226, in the test with M14, with RPMI-8226, in the test on IGROV-1 and in the test with SK-MEL-28 was > 100 µM (inactive) in each case.
With `Cc1ccc(-c2c(N)nc(NC#N)nc2CCC(=O)Nc2ccccc2[N+](=O)[O-])cc1`, the GI50 was > 100 µM (inactive) with NCI-H23; 85.1 µM (inactive) in the test on NCI-H522; > 100 µM (inactive) with UACC-62; > 100 µM (inactive) in the test on NCI-H460; > 100 µM (inactive) with A549; > 100 µM (inactive) in the test with SNB-75. Moreover, the GI50 is > 100 µM (inactive) in the test on CAKI-1; > 100 µM (inactive) with MOLT-4; > 100 µM (inactive) in the test with 786-0; above 100 µM with HCT-15; > 100 µM (inactive) with A498; > 100 µM (inactive) in the test on CCRF-CEM. The GI50 with HT-29, with NCI-H226, in the test with M14, in the test on RPMI-8226, in the test on IGROV-1 and in the test with SK-MEL-28 was > 100 µM (inactive) in each case.
On to `N=c1[nH]cnc2c1nnn2C1C=CC(COS(N)(=O)=O)C1` (stereo not drawn), for which the GI50 with NCI-H23 was 1.95 µM (inactive); with UACC-62 it was 3.37 µM (inactive); with NCI-H460 it was 6.87 µM (inactive); in the test on A549 it was 10.5 µM (inactive); in the test with SNB-75 it was 4.05 µM (inactive); in the test on CAKI-1, 1.25 µM (inactive). In addition, the GI50 is 15.6 µM (inactive) in the test on MOLT-4; 2.19 µM (inactive) in the test on 786-0; 6.5 µM in the test on HCT-15; 5.2 µM (inactive) with NCI/ADR-RES; 13.2 µM (inactive) in the test on CCRF-CEM; 7.33 µM (inactive) in the test with HT-29. Further, the GI50 in the test with NCI-H226 is 4.43 µM (inactive); in the test on M14, 7 µM (inactive); in the test on RPMI-8226, 3.59 µM (inactive); with IGROV-1, 14.4 µM (inactive); in the test on SK-MEL-28, 3.21 µM (inactive).
Take `CCOC(=O)C1C(c2ccccc2)=C(c2ccccc2)C(c2ccccc2)=C1c1ccccc1`: the GI50 was 34.2 µM (inactive) with NCI-H23; 49.8 µM (inactive) in the test with NCI-H522; 19.3 µM (inactive) in the test with UACC-62; 51.8 µM (inactive) in the test on NCI-H460; 33.7 µM (inactive) with A549; 13.2 µM (inactive) in the test on SNB-75. For the same compound, the GI50 with CAKI-1 is > 65.3 µM (inactive); in the test with MOLT-4 it was 50 µM (inactive); with 786-0, 21 µM (inactive); with HCT-15, 72.1 µM; in the test on A498, 20 µM (inactive); with CCRF-CEM, > 79.3 µM (inactive). For the same compound, the GI50 is > 100 µM (inactive) in the test on HT-29; > 39.2 µM (inactive) with NCI-H226; 57.4 µM (inactive) in the test on M14; 19.6 µM (inactive) with RPMI-8226; 29.2 µM (inactive) in the test with IGROV-1; 54.1 µM (inactive) with SK-MEL-28.
